Laboratory results published in ChEMBL document CHEMBL3817795, “Identification and optimisation of a series of N-(4-anilino-2-pyridyl)acetamide activin receptor-like kinase 1 (ALK1) inhibitors” (Medchemcomm, 2016).

Columns and labels:
[1] = biological target: Lymphokine-activated killer T-cell-originated protein kinase (Homo sapiens) (UniProt Q96KB5); test: Inhibition of human recombinant full-length PBK at 1 uM after 30 mins
[2] = biological target: Inhibitor of nuclear factor kappa-B kinase subunit epsilon (Homo sapiens) (UniProt Q14164); test: Inhibition of human recombinant full-length IKKepsilon expressed in insect Sf21 cells at 1 uM using MBP as substrate after 30 mins
[3] = biological target: Serine/threonine-protein kinase PAK 4 (Homo sapiens) (UniProt O96013); test: Inhibition of human recombinant full-length PAK4 expressed in Escherichia coli at 1 uM using RRRLSFAEPG as substrate after 30 mins
[4] = biological target: Dual specificity tyrosine-phosphorylation-regulated kinase 1A (Homo sapiens) (UniProt Q13627); test: Inhibition of human recombinant DYRK1A (1 to 499 residues) expressed in Escherichia coli at 1 uM using KKISGRLSPIMTEQ as substrate after 30 mins
[5] = biological target: MAP/microtubule affinity-regulating kinase 3 (Homo sapiens) (UniProt P27448); test: Inhibition of human recombinant full-length MARK3 expressed in insect Sf21 cells at 1 uM using KKKVSRSGLYRSPSMPENLNRPR as substrate after 30 mins
[6] = biological target: Serine/threonine-protein kinase D1 (Homo sapiens) (UniProt Q15139); test: Inhibition of human recombinant full-length PKD1 expressed in insect Sf21 cells at 1 uM using KKLNRTLSVA as substrate after 30 mins
Sequence of Serine/threonine-protein kinase D1 (Homo sapiens) (Q15139 whole entry): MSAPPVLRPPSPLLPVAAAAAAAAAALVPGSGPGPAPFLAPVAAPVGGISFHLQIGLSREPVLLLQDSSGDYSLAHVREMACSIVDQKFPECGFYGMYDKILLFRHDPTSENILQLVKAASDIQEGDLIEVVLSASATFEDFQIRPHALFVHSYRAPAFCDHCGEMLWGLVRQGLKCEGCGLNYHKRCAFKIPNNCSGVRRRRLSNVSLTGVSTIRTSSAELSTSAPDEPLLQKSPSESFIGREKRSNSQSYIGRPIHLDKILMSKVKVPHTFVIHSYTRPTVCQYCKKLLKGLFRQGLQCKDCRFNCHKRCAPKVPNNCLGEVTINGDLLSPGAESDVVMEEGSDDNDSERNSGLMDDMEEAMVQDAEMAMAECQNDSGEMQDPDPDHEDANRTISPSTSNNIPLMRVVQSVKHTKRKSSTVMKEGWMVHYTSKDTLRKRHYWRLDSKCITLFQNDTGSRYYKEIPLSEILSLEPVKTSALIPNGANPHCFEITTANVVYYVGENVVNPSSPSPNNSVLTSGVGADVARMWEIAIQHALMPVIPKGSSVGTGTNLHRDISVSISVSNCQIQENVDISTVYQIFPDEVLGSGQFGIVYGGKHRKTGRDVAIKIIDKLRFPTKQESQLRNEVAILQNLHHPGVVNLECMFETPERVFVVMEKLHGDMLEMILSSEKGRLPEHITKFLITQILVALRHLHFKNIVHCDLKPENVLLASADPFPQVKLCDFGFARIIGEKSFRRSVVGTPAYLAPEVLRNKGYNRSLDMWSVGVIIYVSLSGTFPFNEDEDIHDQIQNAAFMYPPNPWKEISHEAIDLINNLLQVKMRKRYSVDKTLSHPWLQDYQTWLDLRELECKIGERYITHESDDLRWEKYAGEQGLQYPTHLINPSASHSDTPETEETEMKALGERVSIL

[7] = biological target: Calcium/calmodulin-dependent protein kinase type 1D (Homo sapiens) (UniProt Q8IU85); test: Inhibition of CAMK1d (unknown origin) at 1 uM
[8] = biological target: Mitogen-activated protein kinase 9 (Homo sapiens) (UniProt P45984); test: Inhibition of MAPK9 (unknown origin) at 1 uM
[9] = biological target: Aurora kinase B (Homo sapiens) (UniProt Q96GD4); test: Inhibition of human recombinant full-length AurKB expressed in insect Sf21 cells at 1 uM using LRRLSLGLRRLSLGLRRLSLGLRRLSLG as substrate after 30 mins
[10] = biological target: Ribosomal protein S6 kinase alpha-3 (Homo sapiens) (UniProt P51812); test: Inhibition of MAPKAPK1B (unknown origin) at 1 uM
[11] = biological target: Ribosomal protein S6 kinase alpha-5 (Homo sapiens) (UniProt O75582); test: Inhibition of human recombinant full-length MSK1 at 1 uM after 30 mins
Sequence of Ribosomal protein S6 kinase alpha-5 (Homo sapiens) (O75582 whole entry, looked up): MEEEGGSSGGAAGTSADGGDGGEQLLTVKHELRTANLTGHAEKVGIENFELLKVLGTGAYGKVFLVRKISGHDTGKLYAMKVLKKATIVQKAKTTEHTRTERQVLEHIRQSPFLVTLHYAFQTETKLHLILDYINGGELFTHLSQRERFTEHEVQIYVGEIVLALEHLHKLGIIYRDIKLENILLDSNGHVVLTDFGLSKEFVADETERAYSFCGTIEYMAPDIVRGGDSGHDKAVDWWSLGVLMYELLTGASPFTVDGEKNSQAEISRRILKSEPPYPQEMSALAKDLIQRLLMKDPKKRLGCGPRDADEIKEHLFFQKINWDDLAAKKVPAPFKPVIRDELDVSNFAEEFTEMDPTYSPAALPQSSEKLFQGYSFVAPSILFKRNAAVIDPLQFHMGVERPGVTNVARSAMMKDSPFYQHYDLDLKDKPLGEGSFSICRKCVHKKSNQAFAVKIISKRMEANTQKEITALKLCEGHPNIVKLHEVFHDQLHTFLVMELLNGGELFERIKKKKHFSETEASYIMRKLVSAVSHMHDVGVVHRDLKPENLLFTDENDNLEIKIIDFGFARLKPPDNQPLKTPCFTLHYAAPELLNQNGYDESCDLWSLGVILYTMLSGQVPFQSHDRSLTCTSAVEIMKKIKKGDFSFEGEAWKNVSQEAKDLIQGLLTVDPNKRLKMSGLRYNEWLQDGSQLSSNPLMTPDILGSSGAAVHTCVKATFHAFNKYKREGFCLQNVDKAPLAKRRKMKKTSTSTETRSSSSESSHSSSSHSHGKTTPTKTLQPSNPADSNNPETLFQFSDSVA

[12] = biological target: Ribosomal protein S6 kinase beta-1 (Homo sapiens) (UniProt P23443); test: Inhibition of P70S6K (unknown origin) at 1 uM
Sequence of Ribosomal protein S6 kinase beta-1 (Homo sapiens) (P23443 whole entry, looked up): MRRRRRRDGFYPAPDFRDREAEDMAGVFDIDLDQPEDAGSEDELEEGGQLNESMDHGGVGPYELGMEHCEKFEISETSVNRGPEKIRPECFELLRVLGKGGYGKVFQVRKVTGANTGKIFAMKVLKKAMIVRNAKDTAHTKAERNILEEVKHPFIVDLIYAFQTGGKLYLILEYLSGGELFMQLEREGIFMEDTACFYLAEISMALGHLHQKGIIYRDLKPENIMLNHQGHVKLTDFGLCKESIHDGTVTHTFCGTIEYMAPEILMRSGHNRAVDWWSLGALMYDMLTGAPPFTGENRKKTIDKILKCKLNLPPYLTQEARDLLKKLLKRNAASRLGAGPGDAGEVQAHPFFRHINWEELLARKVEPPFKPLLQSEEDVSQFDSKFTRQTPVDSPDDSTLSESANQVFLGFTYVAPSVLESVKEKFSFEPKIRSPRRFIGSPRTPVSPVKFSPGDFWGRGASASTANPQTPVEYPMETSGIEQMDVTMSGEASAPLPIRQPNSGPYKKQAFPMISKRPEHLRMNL

[13] = biological target: Protein kinase C zeta type (Homo sapiens) (UniProt Q05513); test: Inhibition of PKCz (unknown origin) at 1 uM
[14] = biological target: Serine/threonine-protein kinase pim-3 (Homo sapiens) (UniProt Q86V86); test: Inhibition of human recombinant full-length PIM3 expressed in insect Sf21 cells at 1 uM using RSRHSSYPAGT as substrate after 30 mins
[15] = biological target: Homeodomain-interacting protein kinase 2 (Homo sapiens) (UniProt Q9H2X6); test: Inhibition of human recombinant HIPK2 (165 to 564 residues) expressed in Escherichia coli at 1 uM after 30 mins
[16] = biological target: Serine/threonine-protein kinase Chk2 (Homo sapiens) (UniProt O96017); test: Inhibition of human recombinant CHK2 (5 to 543 residues) expressed in Escherichia coli at 1 uM after 30 mins
[17] = biological target: Serine/threonine-protein kinase PLK1 (Homo sapiens) (UniProt P53350); test: Inhibition of human recombinant full-length PLK1 expressed in insect Sf21 cells at 1 uM using ISDELMDATFADQEAKKK as substrate after 30 mins
[18] = biological target: SRSF protein kinase 1 (Homo sapiens) (UniProt Q96SB4); test: Inhibition of human recombinant full-length SRPK1 expressed in Escherichia coli at 1 uM using RSRSRSRSRSRSRSR as substrate after 30 mins
[19] = biological target: Insulin-like growth factor 1 receptor (Homo sapiens) (UniProt P08069); test: Inhibition of IGF1R (unknown origin) at 1 uM
[20] = biological target: Serine/threonine-protein kinase Nek2 (Homo sapiens) (UniProt P51955); test: Inhibition of human recombinant full-length NEK2a expressed in insect Sf21 cells at 1 uM using RFRRSRRMI as substrate after 30 mins
[21] = biological target: Dual specificity tyrosine-phosphorylation-regulated kinase 3 (Homo sapiens) (UniProt O43781); test: Inhibition of human recombinant full-length DYRK3 expressed in Escherichia coli at 1 uM using KKISGRLSPIMTEQ as substrate after 30 mins
Sequence of Dual specificity tyrosine-phosphorylation-regulated kinase 3 (Homo sapiens) (O43781 whole entry): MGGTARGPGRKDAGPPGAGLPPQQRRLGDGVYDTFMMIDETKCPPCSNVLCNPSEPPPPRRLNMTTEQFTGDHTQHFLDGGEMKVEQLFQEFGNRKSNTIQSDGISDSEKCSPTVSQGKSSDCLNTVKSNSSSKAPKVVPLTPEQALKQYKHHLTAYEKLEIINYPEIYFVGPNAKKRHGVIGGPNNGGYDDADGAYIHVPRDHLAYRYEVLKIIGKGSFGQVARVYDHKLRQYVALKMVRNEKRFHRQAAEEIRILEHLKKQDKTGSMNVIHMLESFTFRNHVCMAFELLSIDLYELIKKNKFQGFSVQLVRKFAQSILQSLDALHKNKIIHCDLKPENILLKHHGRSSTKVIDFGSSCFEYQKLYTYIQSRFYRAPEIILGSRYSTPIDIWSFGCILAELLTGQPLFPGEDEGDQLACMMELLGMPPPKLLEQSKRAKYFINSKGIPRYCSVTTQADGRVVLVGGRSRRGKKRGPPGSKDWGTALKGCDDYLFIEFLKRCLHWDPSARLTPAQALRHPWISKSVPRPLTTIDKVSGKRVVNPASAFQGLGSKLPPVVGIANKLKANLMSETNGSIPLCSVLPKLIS

[22] = biological target: Insulin receptor (Homo sapiens) (UniProt P06213); test: Inhibition of INSR (unknown origin) at 1 uM
Sequence of Insulin receptor (Homo sapiens) (P06213 28-758 limits assumed): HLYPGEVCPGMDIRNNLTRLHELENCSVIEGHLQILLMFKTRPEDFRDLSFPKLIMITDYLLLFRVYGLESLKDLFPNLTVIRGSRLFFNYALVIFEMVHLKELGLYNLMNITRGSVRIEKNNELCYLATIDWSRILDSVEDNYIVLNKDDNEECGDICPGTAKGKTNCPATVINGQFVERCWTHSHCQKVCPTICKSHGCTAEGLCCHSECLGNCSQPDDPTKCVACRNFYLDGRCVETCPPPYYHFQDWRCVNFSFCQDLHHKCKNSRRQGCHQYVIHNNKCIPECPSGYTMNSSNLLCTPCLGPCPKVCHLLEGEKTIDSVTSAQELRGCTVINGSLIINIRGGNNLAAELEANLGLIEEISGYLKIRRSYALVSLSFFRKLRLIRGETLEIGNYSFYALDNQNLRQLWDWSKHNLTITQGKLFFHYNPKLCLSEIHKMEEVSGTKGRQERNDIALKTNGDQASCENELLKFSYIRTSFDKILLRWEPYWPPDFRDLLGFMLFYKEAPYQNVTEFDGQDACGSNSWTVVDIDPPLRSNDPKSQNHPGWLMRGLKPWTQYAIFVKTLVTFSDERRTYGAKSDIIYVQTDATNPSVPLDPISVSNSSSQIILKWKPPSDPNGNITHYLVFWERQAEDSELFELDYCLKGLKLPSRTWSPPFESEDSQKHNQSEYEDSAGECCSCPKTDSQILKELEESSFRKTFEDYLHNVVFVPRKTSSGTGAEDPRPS
Sequence of Insulin receptor (Homo sapiens) (P06213 763-1382 limits assumed): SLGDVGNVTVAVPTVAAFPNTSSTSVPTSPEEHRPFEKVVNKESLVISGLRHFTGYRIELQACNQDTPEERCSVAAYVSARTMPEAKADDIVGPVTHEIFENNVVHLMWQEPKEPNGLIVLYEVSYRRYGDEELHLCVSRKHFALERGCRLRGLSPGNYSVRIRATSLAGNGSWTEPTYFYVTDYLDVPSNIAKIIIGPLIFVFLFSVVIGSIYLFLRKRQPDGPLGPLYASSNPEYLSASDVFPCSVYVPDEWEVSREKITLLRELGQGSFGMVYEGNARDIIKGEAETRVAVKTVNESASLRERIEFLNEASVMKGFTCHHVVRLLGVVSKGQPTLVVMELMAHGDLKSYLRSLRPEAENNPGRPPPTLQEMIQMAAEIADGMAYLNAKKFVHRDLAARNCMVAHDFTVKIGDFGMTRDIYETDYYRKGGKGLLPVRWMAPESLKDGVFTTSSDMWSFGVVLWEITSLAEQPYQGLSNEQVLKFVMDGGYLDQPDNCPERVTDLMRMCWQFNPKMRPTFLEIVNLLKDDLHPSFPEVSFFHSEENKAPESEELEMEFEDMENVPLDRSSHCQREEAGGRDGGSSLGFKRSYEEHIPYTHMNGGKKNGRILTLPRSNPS

[23] = biological target: MAP kinase-activated protein kinase 5 (Homo sapiens) (UniProt Q8IW41); test: Inhibition of MAPKAPK5 (unknown origin) at 1 uM
[24] = biological target: Casein kinase II (Homo sapiens) (UniProt P67870+P68400+P19784); test: Inhibition of human recombinant full-length CK2 at 1 uM after 30 mins; type: protein-complex assay
[25] = biological target: Mitogen-activated protein kinase 14 (Homo sapiens) (UniProt Q16539); test: Inhibition of human recombinant full-length p38alpha at 1 uM after 30 mins
[26] = biological target: Protein kinase C alpha type (Homo sapiens) (UniProt P17252); test: Inhibition of human recombinant full-length PKCa expressed in insect Sf21 cells at 1 uM using histone H1 as substrate after 30 mins
Homo sapiens = species on record: Homo sapiens; test: Inhibition of human recombinant full-length PKA expressed in Escherichia coli at 1 uM using LRRASLG as substrate after 30 mins
[27] = biological target: Serine/threonine-protein kinase 26 (Homo sapiens) (UniProt Q9P289); test: Inhibition of MST4 (unknown origin) at 1 uM
[28] = biological target: MAP kinase-activated protein kinase 2 (Homo sapiens) (UniProt P49137); test: Inhibition of human recombinant […] MAPKAPK2 (46 to 400 residues) expressed in Escherichia coli at 1 uM after 30 mins
[29] = system: RAC-beta serine/threonine-protein kinase (Homo sapiens), P31751 [S474D]; test: Inhibition of human recombinant AKT2 S474D mutant (120 to 481 residues) expressed in insect Sf21 cells at 1 uM using GRPRTSSFAEGKK as substrate after 30 mins
[30] = biological target: Tyrosine-protein kinase SYK (Homo sapiens) (UniProt P43405); test: Inhibition of SYK (unknown origin) at 1 uM
[31] = biological target: Myosin light chain kinase, smooth muscle (Homo sapiens) (UniProt Q15746); test: Inhibition of human recombinant smMLCK (475 to 838 residues) expressed in Escherichia coli at 1 uM using KKRPQRATSNVFA as substrate after 30 mins
[32] = biological target: Eukaryotic elongation factor 2 kinase (Homo sapiens) (UniProt O00418); test: Inhibition of human recombinant full-length EF2K expressed in Escherichia coli at 1 uM using RKKFGESKTKTKEFL as substrate after 30 mins
[33] = biological target: Ephrin type-B receptor 3 (Homo sapiens) (UniProt P54753); test: Inhibition of EPHB3 (unknown origin) at 1 uM
[34] = biological target: Serine/threonine-protein kinase Nek6 (Homo sapiens) (UniProt Q9HC98); test: Inhibition of human recombinant NEK6 (8 to 313 residues) expressed in insect Sf21 cells at 1 uM using FLAKSFGSPNRAYKK as substrate after 30 mins
Sequence of Serine/threonine-protein kinase Nek6 (Homo sapiens) (Q9HC98 whole entry, the tested form may be a part): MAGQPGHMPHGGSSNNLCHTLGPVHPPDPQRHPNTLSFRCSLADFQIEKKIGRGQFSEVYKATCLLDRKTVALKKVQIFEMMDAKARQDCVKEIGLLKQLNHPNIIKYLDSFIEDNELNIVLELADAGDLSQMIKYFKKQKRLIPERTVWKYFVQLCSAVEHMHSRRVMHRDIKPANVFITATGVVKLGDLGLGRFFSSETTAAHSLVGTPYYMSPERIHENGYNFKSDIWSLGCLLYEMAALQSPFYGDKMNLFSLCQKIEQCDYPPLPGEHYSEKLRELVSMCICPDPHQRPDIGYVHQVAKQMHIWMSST

[35] = biological target: 3-phosphoinositide-dependent protein kinase 1 (Homo sapiens) (UniProt O15530); test: Inhibition of PDPK1 (unknown origin) at 1 uM
Sequence of 3-phosphoinositide-dependent protein kinase 1 (Homo sapiens) (O15530 whole entry): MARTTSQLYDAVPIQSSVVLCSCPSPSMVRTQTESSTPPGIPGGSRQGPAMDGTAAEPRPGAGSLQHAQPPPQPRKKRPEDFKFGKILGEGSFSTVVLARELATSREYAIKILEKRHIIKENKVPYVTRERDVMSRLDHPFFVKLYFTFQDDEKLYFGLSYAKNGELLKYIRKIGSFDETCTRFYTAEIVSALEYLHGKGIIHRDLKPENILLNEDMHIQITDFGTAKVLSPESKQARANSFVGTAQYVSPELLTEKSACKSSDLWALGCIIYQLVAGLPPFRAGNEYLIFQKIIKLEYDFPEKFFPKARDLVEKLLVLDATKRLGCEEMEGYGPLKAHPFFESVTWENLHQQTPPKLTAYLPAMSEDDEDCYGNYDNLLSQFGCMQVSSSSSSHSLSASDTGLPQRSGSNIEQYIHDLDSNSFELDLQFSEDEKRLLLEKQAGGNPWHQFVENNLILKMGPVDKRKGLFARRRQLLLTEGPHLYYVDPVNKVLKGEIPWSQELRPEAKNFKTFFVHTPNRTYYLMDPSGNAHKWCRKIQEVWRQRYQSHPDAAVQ

Measured: inhibition

O=C(Nc1cc(Nc2c(Cl)cnc3c2OCO3)ccn1)C1CC1
< 80%: all assays above
